Data: patent US20230053540A1, “TREATMENT OF LIVER INJURY” (Massachusetts Institute of Technology, priority 2019, published 2023)

Tested on: hepatocytes
Assay: Seq-Well scRNA-Seq of hepatocytes after APAP overdose (signature scores, DEG vs untreated)
Assay type: in vivo, mouse
Conditions: A6

## CC(=O)Nc1ccc(O)cc1 [APAP, acetaminophen]
  2-Mar pct.1: 0.611
  2010003K11Rik pct.1: 0.396
  2810007J24Rik pct.1: 0.675
  8430408G22Rik pct.1: 0.041
  Aadac pct.1: 0.673
  Aass pct.1: 0.747
  Abca1 pct.1: 0.604
  Abhd2 pct.1: 0.37
  Acaa1b pct.1: 0.752
  Adck3 pct.1: 0.363
  Adh1 pct.1: 0.74
  Adh4 pct.1: 0.165
  Agpat9 pct.1: 0.277
  Akr1c6 pct.1: 0.675
  Akr1c20 pct.1: 0.248
  Alb pct.1: 1
  Aldh1a1 pct.1: 0.862
  Aldh3a2 pct.1: 0.064
  Aldh8a1 pct.1: 0.418
  Ang pct.1: 0.315
  Apoa2 pct.1: 0.993
  Apoa4 pct.1: 0.721
  Apob pct.1: 0.99
  Apoc1 pct.1: 0.962
  Apoc3 pct.1: 0.869
  Apoe pct.1: 1
  Apol7a pct.1: 0.072
  Arhgef12 pct.1: 0.578
  Arl4d pct.1: 0.112
  Asl pct.1: 0.826
  Atp2a2 pct.1: 0.616
  Atp5e pct.1: 0.506
  Atp5h pct.1: 0.377
  B4galt5 pct.1: 0.332
  Bach1 pct.1: 0.461
  Bcl2l1 pct.1: 0.501
  Btg2 pct.1: 0.549
  C8g pct.1: 0.673
  C230081A13Rik pct.1: 0.279
  Car3 pct.1: 0.854
  Ccl6 pct.1: 0.274
  Cd5l pct.1: 0.21
  Cd14 pct.1: 0.153
  Cd302 pct.1: 0.649
  Cdkn1a pct.1: 0.702
  Cers6 pct.1: 0.332
  Ces3a pct.1: 0.831
  Chchd2 pct.1: 0.718
  Chka pct.1: 0.716
  Cidec pct.1: 0.253
  Clec4f pct.1: 0.339
  Clqb pct.1: 0.234
  Cltc pct.1: 0.661
  Cml1 pct.1: 0.475
  Cox4i1 pct.1: 0.869
  Cox6c pct.1: 0.558
  Cox7a2 pct.1: 0.456
  Cox7b pct.1: 0.632
  Creb3l2 pct.1: 0.329
  Ctsl pct.1: 0.878
  Ctss pct.1: 0.212
  Cxadr pct.1: 0.606
  Cyb5 pct.1: 0.916
  Cyp4a14 pct.1: 0.776
  D10Wsu102e pct.1: 0.37
  Dbi pct.1: 0.819
  Ddt pct.1: 0.539
  Ddx3x pct.1: 0.692
  Ddx5 pct.1: 0.685
  Dusp5 pct.1: 0.196
  Dusp6 pct.1: 0.482
  Efhd2 pct.1: 0.468
  Eif1a pct.1: 0.599
  Eif4g2 pct.1: 0.757
  Epas1 pct.1: 0.604
  Etf1 pct.1: 0.606
  Ets2 pct.1: 0.415
  Fabp1 pct.1: 0.971
  Fabp2 pct.1: 0.315
  Fam134b pct.1: 0.678
  Fdx1 pct.1: 0.305
  Fga pct.1: 0.986
  Fgb pct.1: 0.995
  Fgg pct.1: 0.986
  Fkbp5 pct.1: 0.415
  Fxyd5 pct.1: 0.138
  G6pc pct.1: 0.313
  Gamt pct.1: 0.277
  Gclc pct.1: 0.962
  Gcnt2 pct.1: 0.372
  Gjb2 pct.1: 0.678
  Glyat pct.1: 0.468
  Gm13775 pct.1: 0.284
  Gm15564 pct.1: 0.983
  Gm24601 pct.1: 0.241
  Gm26924 pct.1: 1
  Gn13 pct.1: 0.501
  Gpt2 pct.1: 0.764
  Gpx1 pct.1: 0.969
  Grn pct.1: 0.582
  Gsta1 pct.1: 0.32
  Gulo pct.1: 0.076
  H3f3b pct.1: 0.613
  Haao pct.1: 0.621
  Hacl1 pct.1: 0.489
  Hagh pct.1: 0.573
  Hba-a1 pct.1: 0.165
  Hba-a2 pct.1: 0.131
  Hbb-bs pct.1: 0.537
  Hbb-bt pct.1: 0.246
  Hebp1 pct.1: 0.43
  Hes6 pct.1: 0.076
  Hgd pct.1: 0.511
  Hif1a pct.1: 0.427
  Hilpda pct.1: 0.403
  Hint1 pct.1: 0.57
  Hmox1 pct.1: 0.558
  Hnf4a pct.1: 0.835
  Hpd pct.1: 0.883
  Hsd3b5 pct.1: 0.062
  Hsd17b13 pct.1: 0.864
  Hspb8 pct.1: 0.709
  Iigp1 pct.1: 0.78
  Il1b pct.1: 0.236
  Il1r1 pct.1: 0.683
  Insig2 pct.1: 0.854
  Itih2 pct.1: 0.893
  Jak1 pct.1: 0.554
  Jmjd1c pct.1: 0.47
  Klf6 pct.1: 0.382
  Krt8 pct.1: 0.826
  Krt18 pct.1: 0.864
  Lactb2 pct.1: 0.47
  Lars2 pct.1: 1
  Lifr pct.1: 0.389
  Lpgat1 pct.1: 0.618
  Lpin2 pct.1: 0.745
  Lrg1 pct.1: 0.783
  Lrrc58 pct.1: 0.711
  Lyz2 pct.1: 0.234
  Man2a1 pct.1: 0.671
  Mat1a pct.1: 0.986
  Mbl1 pct.1: 0.382
  Mcm10 pct.1: 0.079
  Mfsd2a pct.1: 0.465
  Mgst1 pct.1: 0.938
  Mmp8 pct.1: 0.136
  Mrap pct.1: 0.606
  Msrb1 pct.1: 0.558
  Mt1 pct.1: 0.981
  Mt2 pct.1: 0.938
  Mthfd2 pct.1: 0.205
  Mup3 pct.1: 1
  Mup4 pct.1: 0.621
  Mup5 pct.1: 0.475
  Mup6 pct.1: 0.706
  Mup7 pct.1: 0.831
  Mup9 pct.1: 0.489
  Mup11 pct.1: 0.511
  Mup12 pct.1: 0.32
  Mup15 pct.1: 0.076
  Mup16 pct.1: 0.334
  Mup17 pct.1: 0.871
  Mup18 pct.1: 0.728
  Mup19 pct.1: 0.759
  Mup21 pct.1: 0.58
  Myh9 pct.1: 0.718
  Myo1e pct.1: 0.475
  Ndufa4 pct.1: 0.656
  Ndufa6 pct.1: 0.506
  Nid1 pct.1: 0.229
  Nop58 pct.1: 0.492
  Nudt7 pct.1: 0.279
  Oaf pct.1: 0.437
  Oat pct.1: 0.05
  Pah pct.1: 0.687
  Pcbd1 pct.1: 0.535
  Pck1 pct.1: 0.814
  Phlda1 pct.1: 0.494
  Picalm pct.1: 0.647
  Plin2 pct.1: 0.943
  Plscr1 pct.1: 0.329
  Pon1 pct.1: 0.685
  Ppib pct.1: 0.463
  Ppl pct.1: 0.47
  Ppm1k pct.1: 0.15
  Prdx1 pct.1: 0.742
  Psat1 pct.1: 0.229
  Psen2 pct.1: 0.384
  Ptprc pct.1: 0.153
  Ranbp2 pct.1: 0.566
  Rarres2 pct.1: 0.678
  Rcan1 pct.1: 0.425
  Rdh7 pct.1: 0.862
  Rell1 pct.1: 0.375
  Retnlg pct.1: 0.129
  Retsat pct.1: 0.845
  Rnase4 pct.1: 0.563
  Rock2 pct.1: 0.425
  Rora pct.1: 0.549
  Rps27l pct.1: 0.484
  S100a8 pct.1: 0.353
